Laboratory results reported in publication PMC7078782 (Drug Design, Development and Therapy, 2020).

Assays:
Stock solution stability = type: physicochemical; details: under the experimental conditions
[1] = Stability of QC samples in beagle plasma; type: in vitro ADME; details: under the experimental conditions (room temperature, autosampler, freeze-thaw, −20°C)
[2] = cats; cited from earlier work
[3] = liver; cited from earlier work
[4] = Pharmacokinetic study in beagles after intramuscular injection of parecoxib; details: beagle, dog, plasma, im, 1.33 mg/kg, after intramuscular injection of 1.33 mg/kg parecoxib, n=6, mean ± SD

Stock solution stability (in words) (Stock solution stability) | Stability in beagle plasma (in words) [1] | Tmax ([4]; Tmax, beagle plasma) [h] | half-life ([4]; t1/2, beagle plasma) [h] | SMILES | t1/2 of conversion to valdecoxib and propionic acid [2] | Share of elimination by sulfonamide glucose hydroformylation [3]
stabilized | – | – | – | Cc1ccc(-c2cc(C(F)(F)F)nn2-c2ccc(S(N)(=O)=O)cc2)cc1 [IS, Celecoxib] | – | –
stabilized | stable | – | – | CCC(=O)NS(=O)(=O)c1ccc(-c2c(-c3ccccc3)noc2C)cc1 [Parecoxib] | about 24 mins | –
stabilized | stable | ~1.36 | ~2.27 | Cc1onc(-c2ccccc2)c1-c1ccc(S(N)(=O)=O)cc1 [Valdecoxib] | – | about 20%
